Experimental data as given in patent publication US20150315179A1, “COMPOUNDS AND METHODS OF TREATING NEUROLOGICAL DISORDERS” (Torrey Pines Institute For Molecular Studies, priority 2014, published 2015).

Assays:
[1] = test system: sAPPα release, NT2 cells stably expressing human APP751; assay: sAPPα ELISA, NT2 cells expressing APP751; format: cell-based; conditions: 24 h
Method: (§1) (5). To confirm the effect of THPI-244 on sAPPα levels in a neuronal cell line and by a tertiary assay, we exposed human Neuron-committed Teratocarcinoma cell line (NT2) stably expressing human APP751 to different concentrations of THPI-244 for 24 h and compared with that of Bryostatin, a classical activator of PKC known to stimulate sAPPα release. […] Levels of sAPPα were measured by ELISA using commercially available kit (cat #27734, IBL-America, Minneapolis, Minn., USA). […] Similar biphasic effect of Bryostatin was confirmed for Aβ42 also, measured again in NT2 stable cells by ELISA (cat # KHB3441, Life Technologies, Grand Island, N.Y., USA). Consistent with sAPPα, THPI-244 decreased Aβ42 levels dose-dependently starting from 50 nM (28%, p<0.05) to 2000 nM (64%, p<0.001) (n=4 independent experiments) (FIG. 1.7). Thus THPI-244 increased non-amyloidogenic processing of APP in NT2 cells.

[2] = test system: Aβ42 levels, NT2 cells stably expressing APP751; assay: Aβ42 ELISA, NT2 stable cells; format: cell-based, human; conditions: ELISA
Method: as §1

[3] = test system: sAPPα release, fibroblasts derived from AD patients; assay: sAPPα ELISA, AD fibroblasts; format: cell-based, human; conditions: 24 h
Method: (1). […] Therefore, we first used fibroblasts derived from AD patients (AG06263C, Coriell Cell repository, supported by NINDS/NIH) and exposed to THPI-244 for 24 h and measured sAPPα release by ELISA as done above for NT2 cells. […] We also confirmed dose-dependent effect of THPI-244 on sAPPα levels in human primary neurons transiently transfected with APP751 with Swedish mutation which is trafficked differently from WT APP and releases more sAPPα. Human neurons were grown on specially coated glass coverslips (cat # GG-18-PDL, NeuVitro, Germany). We could reproducibly achieve nearly 30% transfection efficiency using a nanoparticle based transfection reagent called Neuromag (cat # NM150299, OZ Biosciences, France).

[4] = test system: sAPPα in supernatants of 7WD10 cells; assay: Western blot sAPPα release assay, 7WD10 cells; format: cell-based; conditions: as low as 10 nM, 7WD10 supernatants
Method: (2). To ascertain that hits identified as a result of AlphaLISA assay are not due to artifacts of the detection system, the sAPPα levels were measured by Western blots as a secondary assay downstream of primary HTS to confirm hits or discard artifacts of the AlphaLISA assay. The assay was performed using a range of concentrations of hit compounds (10-5,000 nM). A hit compound named thiazole piperazine #244 (THPI-244) and THPI-326 induced dose-dependent increase of sAPPα in supernatants of 7WD10 cells (FIG. 1.3). […] Since compound THPI-244 increased sAPPα levels more than THPI-326, we focused on THPI-244 for further validation.
(§2) Western blot sAPPα release assay. 7WD10 cells were grown in 6-well plates and treated with test compounds and SAHA (vorinostat) at several concentrations in duplicate wells. After 24 h of drug exposure, the conditioned media (CM) was collected, centrifuged to remove cell debris and subjected to SDS-PAGE electrophoresis. sAPPα (6E10, mouse IgG from IBL America ltd) was detected using indicated antibody. To detect APP-FL holoprotein and C-terminal fragments (CTFs, CT15 antibody), the cells were lysed using lysis buffer (1% NP40) with complete protease inhibitor mix (Sigma) supplemented with sodium vanadate and microcystine. Samples were subjected to SDS-PAGE, transferred and immunoblotted with indicated antibodies and detected by enhanced chemiluminescence method. Quantification of Western blot signals was done using ImageJ software.

[5] = test system: sAPPα release from 7WD10 cells; assay: AlphaLISA sAPPα release assay (pilot screen); format: cell-based
Method: Pilot screen of AlphaLISA sAPPα release assay. 8 μL of assay media (DMEM supplemented with 10% FBS and 1× Penicillin/Streptomycin) containing 20,000 cells were added to all wells of the assay plate, except column 1 where only media was added. Plates were incubated for 4 h at 37° C., 5% CO2, 95% RH after which 80 nL of test compounds in DMSO or DMSO alone were added to respective wells using a pin tool device (VP Scientific, San Diego). After 24 h of incubation at 37° C., 5% CO2, 95% RH, sAPPα AlphaLISA beads were added in 10 μL of buffer, equilibrated for 1 h, and AlphaLISA signal was measured using a Biotek H4 Synergy microplate reader (Biotek Inc). Three parameters were calculated on a per-plate basis: (a) the signal-to-background ratio (S/B); (b) the coefficient for variation [CV; CV=(standard deviation/mean)×100)] for all compound test wells; and (c) the Z′-factor [31]. Nominally active compounds from the pilot screen were determined using mean plus 3 times the standard deviation (Mean+3SD) was used as the cut-off.

[6] = BBB of THPI-244 analogs
Source text: (§3) The following table illustrates Chemical structures and properties of THPI-244 analogs selected out of 37 analogs, and each have significant sAPPα increasing activity. Toxicity is the minimum dose for toxicity.

[7] = test system: TrkA; assay: TrkA increase by THPI-244 analogs; format: cell-based
Source text: as §3

[8] = test system: sAPPα; assay: sAPPα increasing activity of THPI-244 analogs; format: cell-based
Source text: as §3

[9] = test system: NT2 cells stably expressing APP751; assay: SAHA treatment, APP fragments in NT2 cells; format: cell-based, human; conditions: SAHA application
Source text: (§4) We utilized a commercially available AlphaLISA detection kit to develop an HTS assay for identification of compounds that increase sAPPα production in CHO cells stably expressing APP751 (7WD10 cells) (FIG. 2.1B). There are several cell lines that have been used extensively in Alzheimer's disease research. For example, NT2 cells are highly used in AD basic and drug discovery research because they are derived from a human embryonal carcinoma cell line and they can be differentiated into post-mitotic neuron-like cells that develop functional dendrites and axons resembling primary neurons of the human brain [39]. NT2 cells also synthesize amyloid precursor protein important in Alzheimer's disease. However, the rate of growth of NT2 cells is much slower than rate of growth of 7WD10s cells, which makes them less HTS-amenable. We have analyzed both 7WD10 and NT2 cells for expression of the hallmark proteins of Alzheimer's disease: soluble APPα, soluble APPβ, Aβ, and membrane-bound full length APP (APP-FL). […] Since it was shown that broad HDAC inhibition results in a decrease of Aβ and an increase of soluble APPα [41] we tested both cell lines for the effect of application of SAHA (suberoylanilide hydroxamic acid or vorinostat), a pan-HDAC inhibitor [42].

[10] = test system: 7WD10 (CHO) cells stably expressing APP751; assay: SAHA treatment, APP fragments in 7WD10 (CHO) cells; format: cell-based; conditions: SAHA application
Method: as §2, §4

[11] = test system: sAPPα in conditioned medium of 7WD10 cells; assay: sAPPα release ELISA, 7WD10 cells; format: cell-based; conditions: 24 h
Method: Starting from p-methylbenzhydrylamine hydrochloride (MBHA.HCl) resin; we developed different approaches toward the diversity oriented solid-phase parallel synthesis of different aminothiazole compounds 1-6 (Scheme 1) (Micheals, H A et al., 2014, ACS Comb. Sci. 16, 1-4; Nefzi, A et al., 2010, J. Org. Chem. 75, 7939-7941). 575 thiazole compounds were synthesized and were tested for sAPPα increasing activity using CHO cells stably expressing APP751 wt. For initial screenings we used a cell-based human sAPPα ELISA kit (cat#27734, IBL Co., ltd, Japan) following instructions from the manufacturer. The method involves sandwich ELISA and use of two specific antibodies and tetra methyl benzidine as a coloring agent. […]
sAPPα and Aβ40 release ELISA assay. […] The principle of the method is based on the use of tetra methyl benzidine (TMB) as a chromogen and the strength of the generated color is proportional to the quantities of human sAPPα. […] Plates were incubated with chromogen solution for 30 minutes, and read at 450 nm after adding stop solution. Levels of Aβ40 in the CM treated with different concentrations of compound 1 as detailed above were measured by sandwich ELISA exactly as described previously. Aβ40 was captured with Ab9 antibody (epitope, 1-16 of Aβ40) and detected with horseradish peroxidase-conjugated Ab13.1.1 antibody (epitope, 35-40 of Aβ40).

[12] = test system: Aβ40 in conditioned medium of 7WD10 cells; assay: Aβ40 release ELISA, 7WD10 cells; format: cell-based
Source text: sAPPα and Aβ40 release ELISA assay. 7WD10 cells stably expressing APP751 were used for the detection of sAPPα in the conditioned medium (CM). For the detection of sAPPα, human sAPPα assay kit from IBL (Immuno-Biological Laboratories Co., Ltd, cat #27734) was used. The kit is a solid phase sandwich ELISA using two different antibodies. The principle of the method is based on the use of tetra methyl benzidine (TMB) as a chromogen and the strength of the generated color is proportional to the quantities of human sAPPα. Briefly, cells were grown in 6-well plates and treated with compound 1 at 0, 50, 75, 100, 125 and 150 μM final concentrations. After 24 hours of compound exposure, the CM was collected, centrifuged to remove cell debris and used in the assay. 100 μL of EIA buffer was used as blank. The 100 μL of test samples were put in to each well and incubated the precoated plate overnight at […] covered with plate lid. After overnight incubation, wells were vigorously washed with wash buffer several times. Then 100 μL of labeled antibody was added, incubated at 40 C for 30 minutes and washed again several times. Plates were incubated with chromogen solution for 30 minutes, and read at 450 nm after adding stop solution. Levels of Aβ40 in the CM treated with different concentrations of compound 1 as detailed above were measured by sandwich ELISA exactly as described previously. Aβ40 was captured with Ab9 antibody (epitope, 1-16 of Aβ40) and detected with horseradish peroxidase-conjugated Ab13.1.1 antibody (epitope, 35-40 of Aβ40).

[13] = test system: 7WD10 cells; assay: CellTiter-Glo cell viability assay; format: cell-based; conditions: for viability: 100 μM
Method: Cell viability assay. 7WD10 cells were plated in 384-well plates in 8 μL of media. Plates were incubated for 4 and 24 h at 37° C., 5% CO2 and 95% RH. After incubation, 8 μL of CellTiter-Glo® (Promega cat#: G7570) were added to each well, and incubated for 15 min at room temperature. Luminescence was recorded using a Biotek Synergy H4 microplate reader. Viability is expressed as a % relative to wells containing media only (0%) and wells containing cells (100%).
In the absence of known pharmacological agents capable of inducing an increase of sAPPα release, we tested a small molecule (FIG. 2.4A insert, compound 1 in [2]) shown to decrease Aβ release. It was shown that decrease of Aβ release could be accompanied by the increase of soluble APPα, which has a neuroprotective effect. Compound 1 was tested using 20,000 cells/well in the range of 1.2-100 μM using 3-fold serial dilutions and 24 h incubation as an assay endpoint. Increase of sAPPα release was observed only in wells where 100 μM of compound 1 was added either with or without FBS (FIG. 2.4A). Viability of cells was also tested in the presence of 1.2-100 μM of compound 1 to ascertain that the increase of sAPPα release is not due to excessive cell death. Consistent with the above described results, cells were less viable in the absence of FBS. In the presence of 1.2-33 μM of compound 1, cells were approximately 10% less viable than untreated control either with or without FBS (FIG. 2.4B).

Structure (SMILES): CCC/C=C/C=C/C(=O)O[C@H]1/C(=C/C(=O)OC)C[C@H]2C[C@H]([C@@H](C)O)OC(=O)C[C@H](O)C[C@@H]3C[C@H](OC(C)=O)C(C)(C)[C@](O)(C[C@@H]4C/C(=C/C(=O)OC)C[C@H](/C=C/C(C)(C)[C@]1(O)O2)O4)O3 [Bryostatin, reference compound]
- concentration from which sAPPα increase is significant [1]: 10 nM
- effect on sAPPα release [1]: increased sAPPα at low nM concentrations, but then decreased levels dose-dependently
- concentration from which Aβ42 decrease is significant [2]: 10 nM
- concentration from which sAPPα increase is significant [3]: 10 nM

Structure (SMILES): CCC(C)C(=O)N1CCN(Cc2csc(NC[C@H](Cc3ccc(O)cc3)NC(=O)Cc3ccccc3)n2)CC1 (stereo partly shown) [THPI-326]
- increase of sAPPα over untreated control cells [4]: 2 fold
- increase of Alpha signal (sAPPα release) ([5]; 5 μM, 7WD10 cells, 24 h): ~2 fold

Structure (SMILES): c1ccc(CCNc2nc(CN3CCOCC3)cs2)cc1 [TPI-2336-99]
- % BBB [6]: 5.6%
- % TrkA ↑ [7]: 51%
- % sAPPα ↑ [8]: 160%

Structure (SMILES): c1ccc(CCNc2nc(CN3CCCCC3)cs2)cc1 [TPI-2336-100]
- % BBB [6]: 5.9%
- % TrkA ↑ [7]: 54%
- % sAPPα ↑ [8]: 166%

Structure (SMILES): O=C(CCCCCCC(=O)Nc1ccccc1)NO [SAHA, suberoylanilide hydroxamic acid]
- Aβ [9]: decrease
- levels of APP-FL [9]: not affected
- sAPPβ [9]: decrease
- Aβ [10]: decrease
- levels of APP-FL [10]: not affected
- sAPPβ [10]: decrease

Structure (SMILES): Cc1cnc(C(=O)N[C@H](CNc2nc(CN3CCNCC3)cs2)c2ccccc2)cn1 [TPI-2336-55]
- % BBB [6]: 1.0%
- % TrkA ↑ [7]: 69%
- % sAPPα ↑ [8]: 217%

Structure (SMILES): O=C(NCCSCc1cccc(Cl)c1)c1c(Cl)cccc1Cl [compound 1, 2,6-dichloro-N-{2-[(3-chlorobenzyl)thio]ethyl}benzamide]
- increase of sAPPα over untreated control cells ([11]; 100 μM): 2 fold
- maximal effect, increase of sAPPα ([11]; 150 μM): 3 fold
- decrease of Aβ40 supernatant levels ([12]; 100 μM): 24%
- decrease of Aβ40 supernatant levels ([12]; 125 μM): 43%
- decrease of Aβ40 supernatant levels ([12]; 150 μM): 49%
- viability ([13]; with FBS): ~70%
- viability ([13]; without FBS): ~40%
- loss of viability versus untreated control ([13]; 1.2-33 μM, with or without FBS): approximately 10%
- increase of AlphaLISA signal ([5]; 100 μM compound 1, assay development and pilot screen): 2 fold
- concentration at which increase of sAPPα release was observed ([5]; tested 1.2-100 μM, 20,000 cells/well, 24 h, with or without FBS): 100 µM
